Ki, IC50 and Drug uptake data for two compounds are collected here from ChEMBL document CHEMBL2396520, “The development of CNS-active LRRK2 inhibitors using property-directed optimisation” (Bioorg Med Chem Lett, 2013).

The target of data set [1] is T1, Leucine-rich repeat serine/threonine-protein kinase 2 (Homo sapiens, UniProt Q5S007, G2019S). The data set can be described thus: Inhibition of GST-tagged LRRK2 (1326 to 2527 amino acids) G2019S mutant (unknown origin).
In data set [2] the target is T1, Leucine-rich repeat serine/threonine-protein kinase 2. The data set can be described thus: Inhibition of human recombinant LRRK2 G2019S mutant using biotin-LRRKtide as substrate preincubated for 15 mins prior to substrate addition measured after 60 mins by TR-FRET assay. A general note: In TR-FRET formats the signal depends on donor and acceptor labels being close together.

The test system of data set [3] is Brain. The data set can be described thus: Drug uptake in mouse brain at 1 mg/kg, iv. The data set is classed as ADME, organism-based. The arrangement: dose 1 mg/kg, route intravenous. The conditions noted are these: in vivo.
The target of data set [4] is Leucine-rich repeat serine/threonine-protein kinase 2 (Homo sapiens, UniProt Q5S007). The data set can be described thus: Inhibition of human recombinant wild type LRRK2 using biotin-LRRKtide as substrate preincubated for 15 mins prior to substrate addition measured after 60 mins by TR-FRET assay.

Structures are written as SMILES.

T1 sequence (Q5S007 whole entry G2019S, the tested form may be a part): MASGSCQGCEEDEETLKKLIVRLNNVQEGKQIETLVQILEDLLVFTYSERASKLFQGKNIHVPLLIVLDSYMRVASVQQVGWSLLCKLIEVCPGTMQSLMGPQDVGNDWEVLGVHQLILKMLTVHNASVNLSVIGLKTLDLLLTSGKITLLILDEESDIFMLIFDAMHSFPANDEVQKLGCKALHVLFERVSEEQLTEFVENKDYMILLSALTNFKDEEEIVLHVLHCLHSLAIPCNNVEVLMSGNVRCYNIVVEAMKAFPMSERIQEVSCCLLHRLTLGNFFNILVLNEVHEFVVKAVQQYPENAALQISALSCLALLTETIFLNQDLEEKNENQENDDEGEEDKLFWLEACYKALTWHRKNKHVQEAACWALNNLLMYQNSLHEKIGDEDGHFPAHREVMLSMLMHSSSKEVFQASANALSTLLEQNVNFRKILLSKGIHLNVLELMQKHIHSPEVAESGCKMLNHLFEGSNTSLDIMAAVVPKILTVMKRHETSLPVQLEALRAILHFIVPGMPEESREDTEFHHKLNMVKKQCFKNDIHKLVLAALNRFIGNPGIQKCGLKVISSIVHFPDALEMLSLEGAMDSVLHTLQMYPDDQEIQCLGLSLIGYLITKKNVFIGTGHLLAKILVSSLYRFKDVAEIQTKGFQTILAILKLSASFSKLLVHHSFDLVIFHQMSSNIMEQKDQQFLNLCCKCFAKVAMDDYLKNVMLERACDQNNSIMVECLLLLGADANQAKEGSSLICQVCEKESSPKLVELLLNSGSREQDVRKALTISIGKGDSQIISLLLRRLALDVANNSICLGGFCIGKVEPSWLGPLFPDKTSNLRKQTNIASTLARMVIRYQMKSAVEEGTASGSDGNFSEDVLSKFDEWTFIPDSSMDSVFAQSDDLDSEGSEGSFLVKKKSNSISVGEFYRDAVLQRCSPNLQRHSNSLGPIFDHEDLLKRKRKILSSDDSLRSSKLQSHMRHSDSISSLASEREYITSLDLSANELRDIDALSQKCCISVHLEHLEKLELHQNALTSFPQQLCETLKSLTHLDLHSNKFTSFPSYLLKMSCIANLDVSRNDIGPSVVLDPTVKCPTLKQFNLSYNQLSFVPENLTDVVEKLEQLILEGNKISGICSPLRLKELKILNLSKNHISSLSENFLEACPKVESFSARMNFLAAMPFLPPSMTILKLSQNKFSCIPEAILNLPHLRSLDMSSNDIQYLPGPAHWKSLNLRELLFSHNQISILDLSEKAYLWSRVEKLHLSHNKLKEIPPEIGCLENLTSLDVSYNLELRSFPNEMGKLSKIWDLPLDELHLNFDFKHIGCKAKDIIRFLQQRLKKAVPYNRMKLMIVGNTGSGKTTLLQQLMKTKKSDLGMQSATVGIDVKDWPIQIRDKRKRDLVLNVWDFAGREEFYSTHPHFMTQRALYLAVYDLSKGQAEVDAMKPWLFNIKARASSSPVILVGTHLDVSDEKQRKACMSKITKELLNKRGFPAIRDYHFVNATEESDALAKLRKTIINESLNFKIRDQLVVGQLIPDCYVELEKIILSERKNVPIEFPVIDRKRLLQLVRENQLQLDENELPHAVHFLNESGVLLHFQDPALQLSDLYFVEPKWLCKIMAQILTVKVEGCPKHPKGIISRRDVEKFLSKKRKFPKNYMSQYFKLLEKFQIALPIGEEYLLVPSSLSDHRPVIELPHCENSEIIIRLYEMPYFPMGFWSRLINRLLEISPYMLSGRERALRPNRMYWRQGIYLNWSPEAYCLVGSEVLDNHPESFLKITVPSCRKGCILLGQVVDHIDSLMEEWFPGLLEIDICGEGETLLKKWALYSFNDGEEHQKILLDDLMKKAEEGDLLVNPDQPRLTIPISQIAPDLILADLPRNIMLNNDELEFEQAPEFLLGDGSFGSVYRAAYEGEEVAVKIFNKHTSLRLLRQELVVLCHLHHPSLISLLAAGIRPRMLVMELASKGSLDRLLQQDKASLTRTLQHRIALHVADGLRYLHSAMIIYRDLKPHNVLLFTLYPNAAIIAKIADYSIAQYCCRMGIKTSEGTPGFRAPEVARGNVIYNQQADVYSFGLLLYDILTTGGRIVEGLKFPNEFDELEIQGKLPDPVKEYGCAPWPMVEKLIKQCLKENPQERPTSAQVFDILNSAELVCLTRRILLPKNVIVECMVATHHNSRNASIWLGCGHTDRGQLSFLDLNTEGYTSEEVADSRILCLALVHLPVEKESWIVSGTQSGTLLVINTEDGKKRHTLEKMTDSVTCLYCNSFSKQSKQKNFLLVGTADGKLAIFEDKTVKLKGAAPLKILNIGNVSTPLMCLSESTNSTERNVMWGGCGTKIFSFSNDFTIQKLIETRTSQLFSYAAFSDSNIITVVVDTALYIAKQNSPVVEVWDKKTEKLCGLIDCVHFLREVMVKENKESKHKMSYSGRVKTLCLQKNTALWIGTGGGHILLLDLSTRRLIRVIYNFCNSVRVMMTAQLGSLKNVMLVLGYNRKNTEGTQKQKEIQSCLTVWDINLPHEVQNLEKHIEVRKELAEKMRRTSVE
Chain of Leucine-rich repeat serine/threonine-protein kinase 2 (Homo sapiens, UniProt Q5S007) (Q5S007 whole entry): as the sequence (Q5S007 whole entry G2019S, the tested form may be a part) above, with S2019G counted along it

Take `COc1cc(C(=O)N2CCC(N3CCN(C)CC3)CC2)ccc1Nc1ncc2c(n1)N(C)c1ccccc1C(=O)N2C`: the affinity in data set [1] corresponds to a Ki of 6 nM.

As to `COc1cc(N2CCOCC2)ccc1Nc1ncc(F)c(Nc2ccccc2NS(C)(=O)=O)n1`, in data set [2], the IC50 (usually the concentration that gives 50% inhibition) was found to be 7 nM and the inhibition constant Ki (as a rule, a dissociation constant, usually derived from enzyme kinetics or from competition with a known ligand) came to 7 nM. Besides, the Drug uptake in data set [3] worked out at 4%. For the same compound, the half-inhibitory concentration (IC50) in data set [4] amounted to 4 nM.
